Patent publication US20090221648A1, “COMPOSITIONS FOR TREATMENT OF COGNITIVE DISORDERS” (priority 2007, published 2009)
Entries after “also recorded” stand apart in the source; their conditions may differ. Read-outs that look alike come from different tables or passages of the source.

How the values were obtained:
[1] = system: Spontaneously Hypertensive rat (SHR) pups; settings: from literature (Fox et al. 2002, 2005; Decker et al. 2008), cited from earlier work
[2] = system: Spontaneously Hypertensive rat (SHR) pups; test: 5-trial inhibitory avoidance in SHR rat pups; format: in vivo; settings: for Level of Efficacy in SHR 5-trial Inhibitory Avoidance Model: applicant's Examples 1 and 2
Experimental: Methods: In this behavioral paradigm, hypothesized to test aspects of both attention and impulsivity, vehicle-treated Spontaneously Hypertensive rat (SHR) pups show an impaired ability to withhold a natural response to transfer from the light into a preferred dark chamber that is paired with a mild footshock. In this study, SHR pups at postnatal day 22-23 were dosed with either vehicle or atomoxetine (0.001, 0.01, 0.1, 1.0 and 6.0 mg/kg, s.c.) 30 min prior to being tested. They were then placed into the brightly illuminated compartment of a two compartment chamber (Hamilton Kinder, San Diego, Calif.) with a retractable door between the light and dark compartments opened. After animals transferred through the open door to the dark compartment, the door closed automatically and a 0.1 mA scrambled current was applied to a 31 bar stainless steel grid floor for one second. At this point, the pup was removed and returned to its home cage and littermates for a one minute inter trial interval, and the transfer latency was noted. The same pup was returned to the bright compartment, and the process repeated for five trials. Latency to enter the dark compartment was used to evaluate learning.
Methods: In this behavioral paradigm, hypothesized to test aspects of both attention and impulsivity, vehicle-treated SHR rat pups show an impaired ability to withhold a natural response to transfer from the light into a preferred dark chamber that is paired with a mild footshock. In this study, SHR pups at postnatal day 21-25 were dosed with either vehicle or the alpha7 agonist, compound 1,2-methyl-5-[6-phenylpyridazin-3-yl]octahydropyrrolo[3,4-c]pyrrole, (0.01, 0.1, and 1.0 umol/kg, s.c.) 30 min prior to being tested. They were then placed into the brightly illuminated compartment of a two compartment chamber (Hamilton Kinder, San Diego, Calif.) with a retractable door between the light and dark compartments opened. After animals transferred through the open door to the dark compartment, the door closed automatically and a 0.1 mA scrambled current was applied to a 31 bar stainless steel grid floor for one second. At this point, the pup was removed and returned to its home cage and littermates for a one minute inter trial interval, and the transfer latency was noted. The same pup was returned to the bright compartment, and the process repeated for five trials. Latency to enter the dark compartment was used to evaluate learning. Methods for evaluating 2-methyl-5-[6-phenylpyridazin-3-yl]octahydropyrrolo[3,4-c]pyrrole also are described in Tietje, Karin R., et al., Preclinical Characterization of A-582941: A Novel α7 Neuronal Nicotinic Receptor Agonist with Broad Spectrum Cognition-Enhancing Properties, CNS Neuroscience & Therapeutics 14 (2008) 65-82 (2008).
The 5-trial inhibitory avoidance assay in spontaneously hypertensive (SHR) rat pups has been proposed as a model with predictive validity for compounds showing efficacy in attention disorders such as ADHD.

[3] = system: rats; settings: rats performing an operant visual signal detection task; Rezvani et al. 2008; cited from earlier work

Compound: Cc1ncccc1OC[C@@H]1CCCN1 [ABT-089]
- Level of Efficacy in SHR 5-trial Inhibitory Avoidance Model [1]: full efficacy and Full

Compound: CN1CC2CN(c3ccc(-c4ccccc4)nn3)CC2C1 (stereo not drawn) [Compound 1, 2-methyl-5-[6-phenylpyridazin-3-yl]octahydropyrrolo[3,4-c]pyrrole]
- effect on transfer latency ([2]; SHR pups postnatal day 21-25, 0.01, 0.1 and 1.0 umol/kg s.c., 30 min prior to testing, Mann Whitney p<0.05, FIG. 2): significant, dose dependent effect
- transfer latency ([2]; SHR pups postnatal day 21-25, dose of 1 μmol/kg s.c., FIG. 2): significantly increasing transfer latency
- Level of Efficacy in SHR 5-trial Inhibitory Avoidance Model [2]: full efficacy and Full

Compound: Cl.O=C(N[C@@H]1CN2CCC1CC2)c1n[nH]c2ccccc12 [R3487/MEM3454]
- visual sustained attention [3]: improve visual sustained attention

Compound: COC(=O)C(c1ccccc1)C1CCCCN1 (stereo not drawn) [Methylphenidate, methylphenidate]
- Level of Efficacy in SHR 5-trial Inhibitory Avoidance Model [1]: Full
- Level of Efficacy in SHR 5-trial Inhibitory Avoidance Model ([1]; listed as methylphenidate): fully efficacious

Compound: C[C@@H]1CCCN1CCc1cc2cc(-c3ccc(C#N)cc3)ccc2o1 [ABT-239]
- Level of Efficacy in SHR 5-trial Inhibitory Avoidance Model [1]: full efficacy and Full

Compound: Cc1cc([C@@H]2CCCN2C)on1 [ABT-418]
- Level of Efficacy in SHR 5-trial Inhibitory Avoidance Model [1]: full efficacy and Full

Compound: CNCC[C@@H](Oc1ccccc1C)c1ccccc1 [Atomoxetine, atomoxetine]
- transfer latency compared to vehicle treated animals ([2]; SHR pups postnatal day 22-23, 0.001, 0.01, 0.1, 1.0 and 6.0 mg/kg s.c., 30 min prior to testing, FIG. 1): did not alter transfer latency
- Level of Efficacy in SHR 5-trial Inhibitory Avoidance Model [2]: None
- Level of Efficacy in SHR 5-trial Inhibitory Avoidance Model ([2]; listed as atomoxetine): did not show efficacy; also recorded: not efficacious
